This is an account of results in PubChem BioAssay (NCI).

Experiment in all cases: growth of human tumour cells (NCI), 48 h
Test [1] deals with UACC-62 melanoma.
Test [2] has as its system UO-31 renal.
Test [3] concerns NCI-H226 lung.
Test [4] concerns HOP-62 NSCLC.
Test [5] has as its system SK-OV-3 ovarian.
For test [6], the system named is CCRF-CEM leukemia.
The subject of test [7] is IGROV1 ovarian.
Test [8] relates to OVCAR-5 ovarian.
The test system of test [9] is SR leukemia.
The test system of test [10] is NCI/ADR-RES ovarian.

Each structure is given as a SMILES string. Several values for one entry are separate records, joined by “and”; a condition that tells them apart may be missing. Equal entries are not always repeated.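 Each compound was tested at five concentrations against cells in 96-well plates for 48 hours. GI50: concentration for 50% inhibition of growth. TGI denotes the concentration required for complete inhibition of growth.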

With `CC1CCC(NC(=O)N(CCCl)N=O)CC1` (stereo not given), the GI50 in test [1] is 7.87 µM; in test [2], 61.2 µM; in [3], 36.1 µM; in test [4], 71.2 µM; in test [6] it was 8.11 µM; in test [7] it was 22.6 µM. Further, in test [9], the GI50 is 0.832 µM. Besides, the TGI is 29.7 µM and 53.5 µM in test [1]; 92 µM in [2]; 150 µM in test [3]; 93 µM in test [4]; 148 µM in [5]; 30.3 µM and 55.8 µM in [6]. The TGI in [7] is 80.7 µM and 89 µM; in [8] it was 105 µM; in [10] it was 129 µM.

On to `CCN(CC)CCCC(C)Nc1ccnc2cc(Oc3ccccc3)ccc12` (stereo not given), for which the GI50 is 4.16 µM and 3.24 µM in test [1]; 1.3 µM and 11.3 µM in test [2]; 8.4 µM and 14.9 µM in [3]; 7.45 µM and 11.5 µM in [4]; 15.7 µM and 22.9 µM in test [5]; 2.64 µM and 4.69 µM in test [6]. Moreover, the GI50 in test [7] is 3.55 µM and 14.1 µM; in [8], 13.1 µM and 13.4 µM; in test [9], 2.6 µM and 2.27 µM; in test [10], 14.3 µM and 38.4 µM. The TGI in test [1] is 11.2 µM and 12.3 µM; in [2], 3.09 µM and 27.7 µM; in [3], 31.1 µM and > 100 µM; in test [4], 21.7 µM and 37.4 µM; in [5], 32.2 µM and 78.9 µM; in test [6], 12.8 µM and 55.6 µM. The TGI in [7] was 16.9 µM and > 100 µM; in test [8] it was 41.3 µM and 44.1 µM; in test [9], 12.9 µM and 6.66 µM; in test [10], 34.1 µM and > 100 µM.

Regarding `Cc1c(C(N)=O)sc2c1C(=O)N(Cc1ccccc1)C1=NN=C(c3ccc(Cl)cc3)CN12`, the GI50 in [1] is 2.23 µM; in test [2] it was 2.24 µM; in test [3], 2.49 µM; in test [4] it was 3.62 µM; in [5], 3.71 µM; in test [6], 1.49 µM. Further, the GI50 in test [7] is 3.13 µM; in test [8] it was 8.47 µM; in test [9], 3.14 µM; in [10], 1.76 µM. Moreover, the TGI in test [1] was found to be 5.9 µM; in test [2], 15.3 µM; in test [3] it was 11.8 µM; in test [4], 18.5 µM; in test [5], 15.8 µM; in [6], 43.1 µM. Moreover, the TGI in [7] worked out at 22.3 µM; in test [8], 21.1 µM; in [9] it was 50.7 µM; in test [10] it was 11.3 µM.

Take `CC(C)(C)OC(=O)N1CCN(CCn2cc(C(F)(F)F)c3c(Cl)ncnc32)CC1`: the GI50 is 2.25 µM in test [1]; 11.6 µM in test [2]; 20 µM in [3]; 2.19 µM in [4]; 16.7 µM in test [5]; 2.85 µM in test [6]. Further, the GI50 in test [7] was 1.84 µM; in test [8] it was 17.1 µM; in [9] it was 2.94 µM; in [10], 23 µM. Also, the TGI in [1] turned out to be 5.69 µM; in test [2], 24.4 µM; in [3], 43.3 µM; in test [4], 4.91 µM; in test [5], 30.7 µM; in test [6], 9.19 µM. Besides, the TGI was 3.74 µM in test [7], 38.7 µM in [8], above 100 µM in test [9] and 67.7 µM in test [10].

In the case of `COc1c(C)c2c(c(O)c1C/C=C(\C)CCC(=O)O)C(=O)OC2`, the GI50 in [1] was 0.444 µM; in [2], 0.472 µM; in test [3] it was 2.58 µM; in test [4], 0.512 µM; in [5] it was 0.571 µM; in test [6], 0.0889 µM. The GI50 was 0.253 µM in test [7], 1.79 µM in test [8], 0.158 µM in [9] and 0.514 µM in test [10]. Moreover, the TGI in test [1], in test [2], in test [3], in [4], in test [5] and in [6] was above 100 µM in each case. For the same molecule, the TGI in [7], in test [8], in test [9] and in [10] was above 100 µM throughout.

On to `CN[C@@H](C)C(=O)N[C@H](C(=O)N1CCC[C@H]1C(=O)Nc1snnc1-c1ccccc1)C1CCCCC1`, for which the GI50 in test [1] was 16.2 µM; in [2] it was 97.4 µM; in test [3], above 100 µM; in test [4], 26.5 µM; in [5], 0.0244 µM; in test [6], 32.3 µM. The GI50 in test [7] is 76.9 µM; in test [8], above 100 µM; in [9], 20.7 µM; in test [10] it was 66.1 µM. Further, the TGI in test [1] is 34.2 µM; in test [2], above 100 µM; in test [3], above 100 µM; in test [4], above 100 µM; in test [5], 0.723 µM; in [6], above 100 µM. Moreover, the TGI in test [7] is above 100 µM; in test [8], above 100 µM; in test [9], above 69.7 µM; in test [10], above 100 µM.

As to `c1ccc2[nH]c(-c3ccc(-c4nccc5c4[nH]c4ccccc45)cc3)nc2c1`, the GI50 is 1.6 µM in test [1]; 1.69 µM in [2]; 2.27 µM in test [3]; 2.8 µM in test [4]; 4.37 µM in [5]; 3.12 µM in [6]. Moreover, the GI50 is 4.73 µM in test [7], 2.43 µM in test [8], 2.21 µM in test [9] and 3.5 µM in test [10]. The TGI in [1] amounted to 3.49 µM; in test [2], 3.27 µM; in test [3] it was 5.56 µM; in test [4], 10.8 µM; in [5] it was 15.9 µM; in test [6] it was 9.12 µM. Besides, the TGI is 22.4 µM in test [7], 6.47 µM in test [8], 6.36 µM in test [9] and 15.2 µM in test [10].

Consider `N#CC(NC12CC3CC(CC(C3)C1)C2)c1ccc2c(c1)OCO2` (stereo not given), for which the TGI in [1], in test [2], in [3], in test [4], in test [5] and in test [6] was above 100 µM in each case. The TGI in test [7], in test [8], in [9] and in test [10] was above 100 µM throughout.

`COc1cc(OC(=O)c2ccccc2)cc2c1C(=O)C=CC2=O`: the TGI in [1] amounted to 28.5 µM; in [2], 22.8 µM; in [3] it was 49.4 µM; in test [4], 58.6 µM; in [5], 37 µM; in test [6] it was 5.63 µM. For the same molecule, the TGI in test [7] is 29 µM; in test [8], 54.5 µM; in [9] it was 5.03 µM; in [10], above 88.6 µM.

Regarding `FC(F)(F)c1ccc(Nc2nc(-c3c(C(F)(F)F)nc4ccccn34)cs2)cc1`, the GI50 in [1] was 0.0385 µM; in test [2], 0.289 µM; in test [3], 0.358 µM; in test [4] it was 0.0564 µM; in test [5], 0.0491 µM; in [6], 0.0502 µM. In addition, the GI50 in test [7] was 0.422 µM; in test [8], 0.476 µM; in test [9], 0.0402 µM; in test [10], 0.035 µM. In addition, the TGI in test [1] was 3.43 µM; in test [2], 6.89 µM; in test [3], 4.49 µM; in test [4], 9.14 µM; in test [5] it was 5.03 µM; in test [6] it was above 30.8 µM. For the same molecule, the TGI in [7] was 12.1 µM; in test [8] it was 16.5 µM; in test [9] it was above 39.4 µM; in test [10], 2.07 µM.

In the case of `COc1ccc2nc3cccc([N+](=O)[O-])c3c(NCCCCCC(=O)O)c2c1`, the GI50 is 0.183 µM in [1]; 0.161 µM in test [2]; 0.306 µM in [3]; 0.0277 µM in test [4]; 0.915 µM in test [5]; 0.0397 µM in test [6]. The GI50 in test [7] is 0.231 µM; in test [8], 0.132 µM; in test [9], 0.0395 µM; in test [10], 0.313 µM. Also, the TGI in test [1] was 0.465 µM; in test [2], 0.484 µM; in test [3], 1.33 µM; in test [4], 0.187 µM; in [5] it was 5.41 µM; in test [6], 0.302 µM. Moreover, the TGI worked out at 1.16 µM in test [7], 1.11 µM in [8] and 2.61 µM in test [10].

In the case of `COc1cc(CSc2nc3ccc(C)cc3c(=O)n2-c2ccccc2)cc(OC)c1OC`, the GI50 was 1.93 µM in [1]; 3.67 µM in test [2]; 3.4 µM in [3]; 2.48 µM in test [4]; 1.97 µM in test [5]; 2.66 µM in test [6]. Besides, the GI50 was 3.36 µM in test [7], 6.26 µM in test [8], 0.409 µM in [9] and 1.26 µM in [10]. The TGI in [1], in test [2], in test [3], in test [4], in [5] and in [6] was above 100 µM each time. For the same molecule, the TGI is above 100 µM in test [7], above 100 µM in test [8], above 40.8 µM in test [9] and above 100 µM in [10].

In the case of `Cc1nn2c(/C=C3\C(=O)Nc4ccc(Cl)cc43)c(C)nc2s1`, the GI50 in test [1] is 82.1 µM; in [2] it was 34.6 µM; in [3], above 100 µM; in test [4], 61.1 µM; in test [5], 49.8 µM; in [6], 21.1 µM. The GI50 in test [7] is 23.7 µM; in test [8], above 100 µM; in test [9], 4.69 µM; in [10] it was 15.8 µM. In addition, the TGI in test [1], in test [2], in test [3], in test [4], in test [5] and in [6] was above 100 µM in each case. In addition, the TGI in test [7] was above 100 µM; in test [8] it was above 100 µM; in [9], 64.4 µM; in [10] it was above 100 µM.

As to `C=C1CCC2C3(C)COC(c4ccc(N(C)C)cc4)OC3CCC2(C)C1C/C=C1/C(=O)OCC1O` (stereo not given), the GI50 is 4.26 µM in test [1]; 5.63 µM in [2]; 6.09 µM in test [3]; 18.4 µM in test [4]; 17 µM in test [5]; 1.35 µM in test [6]. Further, the GI50 is 2.44 µM in test [7], 7.7 µM in [8], 1.15 µM in test [9] and 3.83 µM in test [10]. In addition, the TGI in test [1] is 16.9 µM; in test [2], 18.9 µM; in test [3], 18.2 µM; in test [4], 33.3 µM; in test [5] it was 50.4 µM; in test [6] it was 3.99 µM. For the same molecule, the TGI was 6.02 µM in test [7], 20 µM in [8], 3.77 µM in test [9] and 43.5 µM in [10].

In the case of `O=[N+]([O-])O.[Cu+2].[NH-]CC[NH-].[NH-]CC[NH-]`, the GI50 in test [1], in [2], in test [3], in test [4], in test [5] and in [6] was above 10 µM throughout. The GI50 in test [7], in test [8], in test [9] and in test [10] was above 10 µM each time. The TGI in [1], in [2], in [3], in [4], in [5] and in [6] was above 10 µM each time. The TGI in [7], in test [8], in [9] and in [10] was above 10 µM throughout.

Consider `O=C(O)CNC(=O)c1ccc(-c2ccccc2)cc1`, for which the TGI in test [1], in test [2], in [3], in test [4], in [5] and in [6] was above 100 µM in each case. The TGI in [7], in [8], in test [9] and in test [10] was above 100 µM throughout.
